Measurements published in PubChem BioAssay AID179 (DTP/NCI, 2004).
pEC50, pIC50: −log10 of the molar value. The source made the active and inactive calls.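 How the source made its calls: active means compounds giving half or more protection of infected cells from virus-caused growth loss, again on retest; inactive means the rest.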

Test system: CEM cells HIV-1 protection, formazan growth assay
Experiment: NCI AIDS Antiviral Assay
Conditions: for pIC50: measured here: growth of uninfected CEM cells
Summary of the method: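 Protection of CEM cells against HIV-1 was scored from cell growth (soluble formazan) across five concentrations, with parallel uninfected cells. Lack of protection may reflect toxicity.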

Row | Compound | pEC50 | pIC50 | outcome
1 | O=[N+]([O-])c1ccc(C2CC(c3ccccc3Cl)=Nc3ccccc3S2=O)cc1 (configuration not stated) | < 5.31 | < 5.31 | –
2 | COP1(=O)OCc2cnccc2O1 (configuration not stated) | < 3.70 | < 3.70 | –
3 | c1cncc(CSc2nc3ccccc3nc2-c2cccs2)c1 | < 5.81 | < 5.81 | –
4 | CNC(=O)CCCN(C)C(=O)CCCCC(=O)N(C)C | < 3.70 | < 3.70 | –
5 | C=C(C)Cn1c(N)c(N=O)c(=O)n(CC)c1=O | < 3.70 | 3.80 | –
6 | CC(=C\c1ccccc1)/C=C1/NC(=O)NC1=O | < 3.70 | 3.89 | –
7 | CC[C@]1(Cc2ccc(OC)c(OC)c2)C=[N+]([O-])O[C@H](OC2CCCC2(c2ccccc2)c2ccccc2)[C@@H]1OC(=O)c1ccccc1 (some centres not stated) | < 3.70 | 5.97 | –
8 | CN(C)c1nc(N)c(C#N)c(C#N)c1C#N | < 3.70 | 5.06 | –
9 | CCCCCCCCCCCCCCCC(=O)OCC1OC(OC)C2NP(=O)(N(CCCl)CCCl)OC1C2O (configuration not stated) | < 5.07 | 6.81 | –
10 | Clc1ccc(/C=N/Nc2nnc3c4ccccc4c4ncccc4c3n2)cc1 | < 4.30 | < 4.30 | –
11 | CC(CCC(N)=O)(CCC(N)=O)[N+](=O)[O-] | < 3.70 | < 3.70 | –
12 | CCCCCCCCCCCCCCCCOC[C@@H](COC(c1ccccc1)(c1ccccc1)c1ccccc1)O[P+](=S)OC (some centres not stated) | < 3.70 | 4.65 | –
13 | CCCCCNc1nonc1N | < 3.70 | < 3.70 | –
14 | CN1C(=NCCO)NS(=O)(=O)c2ccccc21 | < 3.01 | < 3.01 | –
15 | CC(=O)Nc1cc2c(O)c(N=Nc3ccc(C(=O)Nc4ccc(N=Nc5ccc(S(=O)(=O)O)cc5)cc4)cc3)c(S(=O)(=O)O)cc2cc1S(=O)(=O)O | – | – | active
16 | COC(O)C(=O)c1c2c(cc3c1CCC3)CCCC2 (configuration not stated) | < 3.70 | 5.21 | –
17 | Nc1ccc(C(=O)N/C(=C\c2cccc([N+](=O)[O-])c2)c2nc3ccccc3[nH]2)cc1 | – | – | inactive
18 | OC1(c2ccc(-c3ccccc3)cc2)c2ccccc2C2=NCCN21 (configuration not stated) | < 3.70 | < 4.00 | –
19 | Cc1ccc([S@](=O)c2occc2C=O)cc1 | < 4.70 | 5.74 | –
20 | CC(=O)O[C@]12CCCCCC1C1(O)C(O)CCC[C@H]12 (some centres not stated) | < 3.70 | < 3.70 | –
21 | O=C(c1ccccn1)c1nc(-c2ccc(Cl)c(Cl)c2)nc2ccc(Cl)cc12 | – | – | inactive
22 | O=C(NCCCCN1CCCCCC1)C1c2ccccc2-c2ccccc21 | < 3.70 | 4.04 | –

Row | Compound | pEC50 | pIC50 | outcome
23 | CCn1c(SC(C)C(=O)c2c(C)n(C)n(-c3ccccc3)c2=O)nc2ccccc2c1=O (configuration not stated) | < 3.95 | < 3.95 | –
24 | CC1=C(C#N)C(C#N)(C#N)C(NN(C)C)C1 (configuration not stated) | < 3.70 | 5.42 | –
25 | CC(C)CNC(=O)Cn1c2c(c3ccccc31)CCCC2 | < 3.70 | 4.09 | –
26 | COc1ccc(NS(=O)(=O)c2ccc(NC(NC(=O)CC(C)C)(C(F)(F)F)C(F)(F)F)cc2)nn1 | < 3.70 | 3.72 | –
27 | CC(C)c1ccc2nc3ccc(C(=O)NCCN4CCN(c5ccccc5)CC4)cn3c(=O)c2c1 | < 3.70 | 4.83 | –
28 | COc1ccc(S(=O)(=O)N(C)C)cc1C(=O)c1cc(S(=O)(=O)N(C)C)ccc1OC | < 5.64 | < 5.64 | –
29 | O=C(NC1CCN(Cc2ccccc2)CC1)c1cccc(I)c1 | < 3.70 | 4.47 | –
30 | Cc1cccc(C)c1N1C(=O)C2c3[nH]c4ccccc4c3C3CCC(C(C)(C)C)CC3C2C1=O (configuration not stated) | < 3.70 | 4.91 | –
31 | CC1=CC(=O)/C(=C/n2c(=S)sc3ccccc32)C(=O)O1 | < 3.70 | < 3.70 | –
32 | O=C1c2c([N+](=O)[O-])cc(S(=O)(=O)O)c(O)c2C(=O)c2c([N+](=O)[O-])cc(S(=O)(=O)O)c(O)c21 | – | – | inactive
33 | O=C(O)COc1ccc(C(=O)/C(SS/C(C(=O)c2ccc(OCC(=O)O)c(Cl)c2Cl)=C2\C=C(c3ccc(Br)cc3)SS2)=C2/C=C(c3ccc(Br)cc3)SS2)c(Cl)c1Cl | – | – | inactive
34 | O=P(O)(O)c1ccccc1Oc1ccccc1 | < 3.70 | < 3.70 | –
35 | O=C(O)CCC(NC(=O)c1ccc(Oc2nc3ccccc3nc2-c2ccccc2)cc1)C(=O)O (configuration not stated) | < 3.70 | < 3.70 | –
36 | O=c1[nH]c(Nc2cccc(Br)c2)nc2nc[nH]c12 | < 3.70 | < 4.00 | –
37 | Cc1ccnn1CCc1ccc(Cl)cc1Cl | < 3.70 | 4.02 | –
38 | Fc1ccc(N=C/C=C/Nc2ccc(F)cc2)cc1 | – | – | inactive
39 | OC1=C2CCCCCC2=[N+]2CCCCC2C1 (configuration not stated) | < 3.70 | < 3.70 | –
40 | COc1ccc(-c2c(C#N)c(S)n(NS(=O)(=O)c3ccc(C)cc3)c(=O)c2C#N)cc1 | < 3.70 | 5.03 | –
41 | COC(=O)C1C2CC3C1C3C2C(=O)OC (configuration not stated) | < 3.70 | < 3.70 | –
42 | COc1ccc2nc3cccc([N+](=O)[O-])c3c(NCCNCCO)c2c1 | < 6.70 | 6.95 | –
43 | O=c1oc2ccccc2cc1Cl | < 3.84 | < 3.84 | –
44 | O=c1[nH]nnc2c1cnn2C1CCCO1 (configuration not stated) | – | – | inactive

Row | Compound | pEC50 | pIC50 | outcome
45 | Cc1cc(C)c(/C=N/NS(=O)(=O)c2ccccc2)c(C)c1 | – | – | inactive
46 | CC(=O)OC1=NC(C)c2c1cc(OC(C)=O)[nH]c2=O (configuration not stated) | < 4.84 | < 4.84 | –
47 | COc1cc(OC)nc(-n2c(N)c(C#N)c3ccc([N+](=O)[O-])cc3c2=O)n1 | < 3.70 | < 3.70 | –
48 | COc1cccc(/C=C2/Sc3scc(-c4ccccc4)[n+]3C2=O)c1O | < 3.70 | 4.93 | –
49 | CCOc1ccc(NC(=O)C(=O)CC(=O)c2sc(NNC(C)=O)nc2C)cc1 | < 4.35 | < 4.35 | –
50 | NS(=O)(=O)c1cc2c(cc1Cl)NC(CC1CCCC1)NS2(=O)=O (configuration not stated) | < 3.70 | < 3.70 | –
51 | CCOC(=O)C1COc2cc(-c3cc(=O)c4ccccc4o3)ccc2O1 (configuration not stated) | – | – | inactive
52 | Cc1cccc(Nc2ccccc2C(=O)O)c1C | < 3.70 | 3.89 | –
53 | C[n+]1c(-c2ccc(/C=N/NC(=O)c3ccc(C(=O)N/N=C/c4ccc(-c5cn6ccccc6[n+]5C)cc4)nc3)cc2)cn2ccccc21 | 5.58 | 4.66 | –
54 | NC(=Nc1ccc(O)cc1)S(=O)O | < 3.70 | 3.92 | –
55 | COc1ccc2cc(C(=O)c3ccccc3C(=O)O)ccc2c1 | – | – | inactive
56 | Cc1ncc(CCl)c2c1OC(C)(C)OC2 | < 3.17 | 5.10 | –
57 | CCN(CC)C(=O)O/N=C(/C)c1ccccc1 | < 3.70 | < 3.70 | –
58 | C/C(O)=C(\N=O)C(=O)Nc1ccc(Cl)cc1Cl | < 3.47 | 3.84 | –
59 | CC1OC(=O)C2CC3CCCCC3C(/C=C/C3CCCC(C)N3C)C12 (configuration not stated) | – | – | inactive
60 | CCCCCCCCSC(=O)n1cc(F)c(=O)[nH]c1=O | < 4.21 | < 4.21 | –
61 | O=C(CCC/C(CC(=O)c1ccc(Cl)cc1)=N\NC(=O)c1cc2ccccc2cc1O)Nc1cccc([N+](=O)[O-])c1 | – | – | inactive
62 | CNS(=O)(=O)c1c(N)ncn1C | < 2.96 | < 2.96 | –
63 | CC1=C(C(=O)N[C@@H](CC(C)C)C(=O)O)N2C(=O)[C@@H](NC(=O)[C@@H](N)Cc3ccccc3)[C@H]2SC1 | < 3.70 | 4.07 | –
64 | C[N+](C)(C)CC1CCC(C[N+](C)(C)C)C1=O (configuration not stated) | – | – | inactive
65 | Cc1c(CN2CCN(C)CC2)c(CN2CCN(C)CC2)c(C)n1-c1ccc(Cl)cc1 | < 3.82 | 4.58 | –
